In the NIST ThermoML archive (doi:10.1016/j.jct.2013.01.010):
± gives the expanded uncertainty stated by the source.

Conditions: 101.33 kPa, Liquid; for speed of sound: Sing-around technique in a fixed-path interferometer; for mass density: Vibrating tube method

Compound	speed of sound (293.15 K) [m/s]	mass density (293.15 K) [kg/m3]	speed of sound (298.15 K) [m/s]	mass density (298.15 K) [kg/m3]	speed of sound (303.15 K) [m/s]	mass density (303.15 K) [kg/m3]	speed of sound (308.15 K) [m/s]	mass density (308.15 K) [kg/m3]
CCn1cc[n+](C)c1.F[B-](F)(F)F [1-ethyl-3-methylimidazolium tetrafluoroborate]	1631 ± 2.4	1283.89 ± 1.5	1619.4 ± 2.4	1279.91 ± 1.5	1607.6 ± 2.4	1276.26 ± 1.5	1596.3 ± 2.4	1272.07 ± 1.4
CC(C)=O [acetone]	1186 ± 1.2	789.987 ± 0.15	1163.8 ± 1.2	784.405 ± 0.15	1141.4 ± 1.2	778.871 ± 0.15	1119.1 ± 1.2	773.066 ± 0.15
C[S+](C)[O-] [dimethyl sulfoxide]	1503.2 ± 1.2	1100.43 ± 0.12	1486.3 ± 1.2	1095.42 ± 0.12	1469.2 ± 1.2	1090.41 ± 0.12	1452.7 ± 1.2	1085.39 ± 0.12
